Laboratory results published in ChEMBL document CHEMBL1147284, “Alkaloids from the Leaves of Prosopis juliflora” (J Nat Prod, 1989).
Calls of active or inactive are those of the source.

Experiments:
Format in all cases: functional, organism-based
Staphylococcus aureus = experiment: Antibacterial activity against Staphylococcus aureus B827 after 24 hrs
Escherichia coli [1] = experiment: Antibacterial activity against Escherichia coli 11303 HER 1024 after 24 hrs
Pseudomonas aeruginosa = experiment: Antibacterial activity against Pseudomonas aeruginosa PAO1 HER 1018 after 24 hrs
Shigella sonnei = experiment: Antibacterial activity against Shigella sonnei YER HER 1048 after 24 hrs
Escherichia coli [2] = experiment: Antibacterial activity against Escherichia coli K125 HER 1037 after 24 hrs
Klebsiella pneumoniae = experiment: Antibacterial activity against Klebsiella pneumoniae C3 HER 1111 after 24 hrs

Measured: Activity

C[C@@H]1N[C@H](CCCCCCCCCCc2cc(CCCCCCCCC[C@@H]3CC[C@H](O)[C@H](C)N3)c[n+]3c2C=CC3)CC[C@@H]1O
active: all assays above
